Measurements from patent US6506766B1 (Abbott Laboratories, priority 1998, dated 2003).
Read-outs that look alike come from different tables or passages of the source.

Key:
[1] = molecular target: T1, human progesterone receptor-A [PRA] isoform (Homo sapiens, UniProt P06401); assay: Radioligand binding with human progesterone receptor cytosol ([3H]-progesterone competition); settings: PRA cytosol expressed in insect SF21 cells, [3H]Prog ~0.8 nM, 4° C. overnight; Ki by Cheng-Prusoff, KL ~4.5 nM; read-out: Ki (nM) PR
T1 construct: host or cells: insect SF21 cells (baculovirus)
T1 sequence (P06401 1-769 isoform P06401-2): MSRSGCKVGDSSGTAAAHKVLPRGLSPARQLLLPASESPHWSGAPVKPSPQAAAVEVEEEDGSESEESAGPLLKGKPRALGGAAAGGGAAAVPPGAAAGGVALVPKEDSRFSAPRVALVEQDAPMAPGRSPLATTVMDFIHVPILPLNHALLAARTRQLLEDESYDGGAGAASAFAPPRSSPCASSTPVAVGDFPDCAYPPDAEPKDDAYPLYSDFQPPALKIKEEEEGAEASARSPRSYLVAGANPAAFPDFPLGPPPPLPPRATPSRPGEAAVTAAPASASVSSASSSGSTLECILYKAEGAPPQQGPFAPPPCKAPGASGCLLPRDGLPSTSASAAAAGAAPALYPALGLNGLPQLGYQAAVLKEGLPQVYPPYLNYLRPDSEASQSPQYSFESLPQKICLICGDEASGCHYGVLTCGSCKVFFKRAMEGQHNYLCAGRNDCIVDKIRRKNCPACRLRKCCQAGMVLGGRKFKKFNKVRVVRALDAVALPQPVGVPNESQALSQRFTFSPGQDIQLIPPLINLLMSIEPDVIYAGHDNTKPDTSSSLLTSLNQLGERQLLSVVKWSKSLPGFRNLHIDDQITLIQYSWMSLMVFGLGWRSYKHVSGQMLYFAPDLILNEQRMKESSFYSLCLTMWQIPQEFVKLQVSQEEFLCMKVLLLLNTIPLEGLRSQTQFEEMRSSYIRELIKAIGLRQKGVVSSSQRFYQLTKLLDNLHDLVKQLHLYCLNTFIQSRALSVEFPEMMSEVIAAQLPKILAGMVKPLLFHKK

[2] = molecular target: T2, human glucocorticoid receptor-α [GRX] isoform (Homo sapiens, UniProt P04150); assay: Radioligand binding with human glucocorticoid receptor cytosol ([3H]-dexamethasone competition)
T2 construct: host or cells: insect SF21 cells (baculovirus)
T2 sequence (P04150 1-777): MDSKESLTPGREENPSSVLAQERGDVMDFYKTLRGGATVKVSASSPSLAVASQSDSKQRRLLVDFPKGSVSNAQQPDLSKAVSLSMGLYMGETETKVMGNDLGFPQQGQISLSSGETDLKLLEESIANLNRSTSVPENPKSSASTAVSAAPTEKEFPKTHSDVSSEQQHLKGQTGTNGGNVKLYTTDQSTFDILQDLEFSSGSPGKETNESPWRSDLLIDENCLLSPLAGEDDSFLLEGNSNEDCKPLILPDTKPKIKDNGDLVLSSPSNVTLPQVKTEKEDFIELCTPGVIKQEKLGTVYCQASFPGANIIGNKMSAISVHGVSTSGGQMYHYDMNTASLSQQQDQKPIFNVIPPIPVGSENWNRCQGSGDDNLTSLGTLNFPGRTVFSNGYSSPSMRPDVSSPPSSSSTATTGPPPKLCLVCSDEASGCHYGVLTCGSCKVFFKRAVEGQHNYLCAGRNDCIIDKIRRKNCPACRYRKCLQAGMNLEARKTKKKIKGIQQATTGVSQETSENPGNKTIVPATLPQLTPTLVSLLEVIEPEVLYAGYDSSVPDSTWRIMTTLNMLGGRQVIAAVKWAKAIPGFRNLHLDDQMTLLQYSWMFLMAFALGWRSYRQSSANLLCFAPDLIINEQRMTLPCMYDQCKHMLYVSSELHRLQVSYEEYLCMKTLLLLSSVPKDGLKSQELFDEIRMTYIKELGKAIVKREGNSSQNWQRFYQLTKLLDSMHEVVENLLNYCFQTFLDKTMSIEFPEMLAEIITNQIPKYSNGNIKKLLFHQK

[3] = GRX cytosol expressed in insect SF21 cells, [3H]-Dex ~0.9 nM, 4° C. overnight, Ki by Cheng-Prusoff, KL ~[…], read-out: Ki (nM) GR

Row | SMILES | Ki [1] [nM] | Ki [2, 3] [nM] | Ki ([2]; Ki (nM) GR) [nM]
1 | C=CCC1Oc2c(Br)ccc(OC)c2-c2ccc3c(c21)C(C)=CC(C)(C)N3 (stereo not shown) [Example 298, 10-Methoxy-7-bromo-5-(3-propenyl)-2,2,4-trimethyl-1H-2,5-dihydro-[1]benzopyrano[3,4-f]quinoline] | ≥ 10000 | 4.1 | 
2 | COc1ccc(Br)c2c1-c1ccc3c(c1C(C1C=C(C)CCC1)O2)C(C)=CC(C)(C)N3 (stereo not shown) [Example 299] | 2900 | 5.4 | 
3 | C=CCC1Oc2ccc(Br)c(OC)c2-c2ccc3c(c21)C(C)=CC(C)(C)N3 (stereo not shown) [Example 300, 10-Methoxy-9-bromo-5-(3-propenyl)-2,2,4-trimethyl-1H-2,5-dihydro-[1]benzopyrano[3,4-f]quinoline] | 34.4 | 5.3 | 
4 | C=CCC1Oc2c(Br)cc(Br)c(OC)c2-c2ccc3c(c21)C(C)=CC(C)(C)N3 (stereo not shown) [Example 301, 7,9-Dibromo-10-methoxy-5-(3-propenyl)-2,2,4-trimethyl-1H-2,5-dihydro[1]benzopyrano[3,4-f]quinoline] | 113 | 16 | 
5 | COc1c(Br)cc(Br)c2c1-c1ccc3c(c1C(C1C=CCCC1)O2)C(C)=CC(C)(C)N3 (stereo not shown) [Example 302, 7,9-Dibromo-5-[cyclohexen-3-yl]-10-methoxy-2,2,4-trimethyl-2,5-dihydro-1H-[1]benzopyrano[3,4-f]quinoline] | 99 | 5.9 | 
6 | COc1c(Br)cc(Br)c2c1-c1ccc3c(c1C(C1C=C(C)CCC1)O2)C(C)=CC(C)(C)N3 (stereo not shown) [Example 303] | 58.5 | 4.9 | 
7 | C=CCC1Oc2c(C=C)ccc(OC)c2-c2ccc3c(c21)C(C)=CC(C)(C)N3 (stereo not shown) [Example 304, 10-Methoxy-7-(2-ethenyl)-5-(3-propenyl)-2,2,4-trimethyl-1H-2,5-dihydro-[1]benzopyrano[3,4-f]quinoline] | 681 | 34.5 | 
8 | C=CCC1Oc2c(C)ccc(OC)c2-c2ccc3c(c21)C(C)=CC(C)(C)N3 (stereo not shown) [Example 305, 10-Methoxy-7-methyl-5-(3-propenyl)-2,2,4-trimethyl-1H-2,5-dihydro-[1]benzopyrano[3,4-f]quinoline] | 6920 | 2 | 
9 | C=CCC1Oc2c(C(C)=O)ccc(OC)c2-c2ccc3c(c21)C(C)=CC(C)(C)N3 (stereo not shown) [Example 306, 10-Methoxy-7-acetyl-5-(3-propenyl)-2,2,4-trimethyl-1H-2,5-dihydro-[1]benzopyrano[3,4-f]quinoline] | 4460 | 717 | 
10 | C=CCC1Oc2c(C)cc(C)c(OC)c2-c2ccc3c(c21)C(C)=CC(C)(C)N3 (stereo not shown) [Example 308, 10-Methoxy-7-methyl-9-methyl-5-(3-propenyl)-2,2,4-trimethyl-1H-2,5-dihydro-[1]benzopyrano[3,4-f]quinoline] | 960 | 50.8 | 
11 | COc1cccc2c1-c1ccc3c(c1C(C1=CCCCC1)O2)C(C)=CC(C)(C)N3 (stereo not drawn) [Example 325, trans 2,5-Dihydro-10-methoxy-5-(1-cyclohexenyl)-2,2,4-trimethyl-1H-[1]benzopyrano[3,4-f]quinoline] | ≥ 10000 |  | 24
12 | C=CCC1Oc2cccc(C#N)c2-c2ccc3c(c21)C(C)=CC(C)(C)N3 (stereo not shown) [Example 327, 2,5-Dihydro-10-cyano-5-(3-propenyl)-2,2,4-trimethyl-1H-[1]benzopyrano[3,4-f]quinoline] | 1460 | 9.3 | 
13 | C=CCC1Oc2cccc(CN)c2-c2ccc3c(c21)C(C)=CC(C)(C)N3 (stereo not shown) [Example 331, 2,5-Dihydro-10-aminomethyl-5-(3-propenyl)-2,2,4-trimethyl-1H-[1]benzopyrano[3,4-f]quinolione] | ≥ 10000 | 142 | 
14 | C=CCC1Oc2cccc(COC)c2-c2ccc3c(c21)C(C)=CC(C)(C)N3 (stereo not shown) [Example 332, 2,5-Dihydro-10-methoxymethyl-5-(3-propenyl)-2,2,4-trimethyl-1H-[1]benzopyrano[3,4-f]quinoline] | ≥ 10000 | 18 | 

Further lines, with some results ahead:

Row | Ki [1] [nM] | Ki [2, 3] [nM] | SMILES | Ki ([2]; Ki (nM) GR) [nM]
15 | ≥ 10000 | 1.7 | COc1cccc2c1-c1ccc3c(c1C(c1cccc(CCO)c1)O2)C(C)=CC(C)(C)N3 (stereo not shown) [Example 314, 2,5-Dihydro-10-methoxy-5-(3-(2-hydroxyethyl)phenyl)-2,2,4-trimethyl-1H-[1]benzopyrano[3,4-f]quinoline] | 
16 | ≥ 10000 | 13 | COc1cccc2c1-c1ccc3c(c1C(c1cccc(CCOS(C)(=O)=O)c1)O2)C(C)=CC(C)(C)N3 (stereo not shown) [Example 315, 2,5-Dihydro-10-methoxy-5-(3-(2-methanesulfonyloxyethyl)phenyl)-2,2,4-trimethyl-1H-[1]benzopyrano[3,4-f]quinoline] | 
17 | ≥ 10000 | 11 | COc1cccc2c1-c1ccc3c(c1C(c1cccc(CCSC)c1)O2)C(C)=CC(C)(C)N3 (stereo not shown) [Example 316, 2,5-Dihydro-10-methoxy-5-(3-(2-methythioethyl)phenyl)-2,2,4-trimethyl-1H-[1]benzopyrano[3,4-f]quinoline] | 
18 | ≥ 10000 | 6.5 | COc1cccc2c1-c1ccc3c(c1C(c1cccc(CCOC(=O)N(C)C)c1)O2)C(C)=CC(C)(C)N3 (stereo not shown) [Example 317, 2,5-Dihydro-10-methoxy-5-(3-(2-(N,N-dimethylaminocarbonyloxy)ethyl)phenyl)-2,2,4-trimethyl-1H-[1]benzopyrano[3,4-f]quinoline] | 
19 | ≥ 10000 | 553 | COc1cccc2c1-c1ccc3c(c1C(c1cccc(CCN(C)C)c1)O2)C(C)=CC(C)(C)N3 (stereo not shown) [Example 318, 2,5-Dihydro-10-methoxy-5-(3-(2-(N,N-dimethylamino)ethyl)phenyl)-2,2,4-trimethyl-1H-[1]benzopyrano[3,4-f]quinoline] | 
20 | 492 | 16 | COc1cccc2c1-c1ccc3c(c1C(C1CC1)O2)C(C)=CC(C)(C)N3 (stereo not shown) [Example 319, 2,5-Dihydro-10-methoxy-5-cyclopropyl-2,2,4-trimethyl-1H-[1]benzopyrano[3,4-f]quinoline] | 
21 | 2880 | 44 | COc1cccc2c1-c1ccc3c(c1C(/C=C/c1ccccc1)O2)C(C)=CC(C)(C)N3 (stereo not drawn) [Example 321, trans 2,5-Dihydro-10-methoxy-5-(2-phenylethenyl)-2,2,4-trimethyl-1H-[1]benzopyrano[3,4-f]quinoline] | 
22 | 2300 | 107 | COc1cccc2c1-c1ccc3c(c1C(C#Cc1ccccc1)O2)C(C)=CC(C)(C)N3 (stereo not shown) [Example 322, 2,5-Dihydro-10-methoxy-5-(2-phenylethynyl)-2,2,4-trimethyl-1H-[1]benzopyrano[3,4-f]quinoline] | 
23 | ≥ 10000 | 428 | COc1cccc2c1-c1ccc3c(c1C(/C=C\c1ccccc1)O2)C(C)=CC(C)(C)N3 (stereo not drawn) [Example 323, cis 2,5-Dihydro-10-methoxy-5-(2-phenylethenyl)-2,2,4-trimethyl-1H-[1]benzopyrano[3,4-f]quinoline] | 
24 | ≥ 10000 | 228 | C=CCC1Oc2cccc(-c3ccco3)c2-c2ccc3c(c21)C(C)=CC(C)(C)N3 (stereo not shown) [Example 326, 2,5-Dihydro-10-(2-furanyl)-5-(3-propenyl)-2,2,4-trimethyl-1H-[1]benzopyrano[3,4-f]quinoline] | 
25 | 3670 | 5.6 | C=Cc1cccc2c1-c1ccc3c(c1C(c1ccccc1)O2)C(C)=CC(C)(C)N3 (stereo not shown) [Example 333, 2,5-Dihydro-10-ethenyl-5-phenyl-2,2,4-trimethyl-1H-[1]benzopyrano[3,4-f]quinoline] | 
26 | ≥ 10000 | 9.5 | C#Cc1cccc2c1-c1ccc3c(c1C(c1ccccc1)O2)C(C)=CC(C)(C)N3 (stereo not shown) [Example 334, 2,5-Dihydro-10-ethynyl-5-phenyl-2,2,4-trimethyl-1H-[1]benzopyrano[3,4-f]quinoline] | 
